This is an account of results in patent publication US9056108B2, “Method of treating atrial fibrillation” (Gilead Sciences, Inc., priority 2009, dated 2015).

The test system of data set [1] is ACh-mediated persistent AF in isolated canine coronary-perfused right atria. As to the kind of experiment: Acetylcholine (ACh)-mediated persistent AF model in coronary-perfused right atria. As to conditions: ranolazine 5 μM, dronedarone 10 μM. The procedure: To assess the anti-AF potential of ranolazine, dronedarone, and their combination, we used an acetylcholine (ACh, 1.0 μM)-mediated AF model. In the presence of ACh, premature electrical stimulation (PES) or rapid pacing (CL=50-80 ms) induces persistent AF in 100% of canine coronary-perfused right atrial preparations.^9 The effect of the drugs was assessed to prevent (series 1) the induction of AF. In a separate set of preparations, the ability of these agents was evaluated to terminate (series 2) persistent AF. In the first series, ACh was added to the perfusate 20-30 min after the start of perfusion with 5 μM ranolazine, 10 μM dronedarone, or the combination of these agents. This was followed by attempts to induce the arrhythmia electrically. In the second series, the agents were added to the perfusate during ACh-mediated persistent AF (on the 5-6th minutes after the start of the arrhythmia). In cases in which the drug terminated AF, we attempted to re-induce the arrhythmia with rapid pacing.

For data set [2], the system named is rabbit isolated heart treated with acetylcholine. In words: Electrically-induced atrial fibrillation in rabbit isolated heart treated with acetylcholine. The procedure:
Each rabbit was sedated using intramuscular injections of 6 mg/kg xylazine and 40 mg/kg ketamine and then anesthetized using a “cocktail” of ketamine (15 mg/kg)+xylazine (4 mg/kg) in 1.5 ml saline. The ketamine/xylazine cocktail was administered as an i.v. bolus via the marginal ear vein. After anesthesia was confirmed, the thorax was opened and the heart was quickly excised. The heart was placed in a modified Krebs-Henseleit (K-H) physiological saline solution at room temperature. The K-H solution contained (in mmol/L): NaCl 118, KCl 2.8, KH2PO4 1.2, CaCl2 2.5, MgSO4 0.5, pyruvate 2.0, glucose 5.5, Na2EDTA 0.57 and NaHCO3 25. The solution was continuously gassed with 95% O2 and 5% CO2, and its pH was adjusted to 7.4. The aorta was rapidly catheterized and the heart was perfused by the method of Langendorff with K-H solution warmed to 36-36.5° C. at a rate of 20 mL/min with a roller pump (Gilson Minipuls3, Middleton, Wis.). CPP was measured (with a Biopac MP 150 pressure transducer, Goleta, Calif.) from a side port of the aortic catheter. To facilitate exit of fluid from the chamber of the left ventricle (LV), the leaflets of the mitral valve were trimmed with fine spring-handled scissors. The right atrial wall was partially removed. […]

In data set [3] the test system is isolated canine coronary-perfused right atria. As to the kind of experiment: Electrophysiology in isolated coronary-perfused canine right atrial preparations. As to conditions: in presence of ACh 1 μM, ranolazine 5 μM, dronedarone 10 μM. The procedure:
Experiments were performed using isolated coronary-perfused canine right atrial (RA) and left ventricular (LV) preparations (≈3×1.5×1 cm). Isolation and perfusion of the preparations were as previously described.^9, 15, 16 Briefly, preparations were dissected from hearts removed from anesthetized (sodium pentobarbital) adult mongrel dogs (20-30 kg). Unfolded RA with attached rim of the right ventricle was cannulated and perfused with cold cardioplegic solution (4-8° C.) through the ostium of the right coronary artery; the LV wedge was perfused through a diagonal branch of the left anterior descending coronary artery. Unperfused tissue was removed with a razor blade. Cut ventricular and atrial branches were ligated using silk thread. The preparations were then transferred to a temperature-controlled bath and arterially-perfused with Tyrode's solution by use of a roller pump. The composition of the Tyrode's solution was (in mM): NaCl 129, KCl 4, NaH2PO4 0.9, NaHCO3 20, CaCl2 1.8, MgSO4 0.5, and D-glucose 5.5, buffered with 95% O2 and 5% CO2 (37±0.5° C., pH=7.35)
Transmembrane action potential (AP) recordings were obtained using floating glass microelectrodes at a sampling rate of 40 kHz. A pseudo-electrocardiogram (ECG) was recorded using two electrodes consisting of Ag/AgCl half cells placed in the Tyrode's solution bathing the preparation, 1.0 to 1.5 cm from the two opposite sides of the atrial or ventricular coronary-perfused preparations. Conduction time was approximated by the duration of “P wave” in atria and “QRS complex” in ventricles, at a level representing 10% of “P wave” and “QRS” amplitude. Diastolic threshold of excitation (DTE) was determined by increasing stimulus intensity in 0.01 mA steps. Effective refractory period (ERP) was measured by delivering premature stimuli at progressively shorter S1-S2 intervals after every 10 basic beats at a pacing cycle length (CL) of 500 ms (5 ms steps; 2 times DTE). Post-repolarization refractoriness (PRR) was recognized when ERP exceeded action potential duration measured at 90% repolarization (APD90) in the ventricle and APD measured at 70% repolarization (APD70) in atria. Ventricular ERP was coincident with APD90, whereas atrial ERP was generally coincident with APD70-75.^9 The shortest S1-S1 permitting 1:1 activation was measured by progressively shortening pacing CL starting from a CL of 500 ms.
Stable AP recordings could not be readily obtained in the vigorously contracting perfused preparations. The largest recorded maximum rate of rise of the AP upstroke (Vmax) values per experimental condition were taken for statistical comparison. Only APs having amplitudes of at least 100 mV were considered in the analysis. The largest Vmax criterion was used because this was associated with the largest amplitude and the most negative resting membrane potential, depicting full or near full impalement. In determining use-dependent depression of Vmax, values were normalized to the Vmax value at a CL of 500 ms for each experiment and then averaged.
Because of their dependence on peak INa, Vmax, DTE, PRR, and conduction time as well the shortest S1-S1 interval permitting 1:1 activation are referred to as INa-dependent parameters.
The equilibration period for the coronary-perfused preparations was 30-120 min. The preparations were exposed to 5 μM ranolazine, 10 μM dronedarone (after 30 min washout of ranolazine), and the combination of these agents for at a period of at least 20 min. In time-control experiments, 20 minutes was sufficient to achieve steady-state in the effects of each of the drugs to alter electrophysiologic parameters. Recordings were obtained at a cycle length (CL) of 500 and 300 ms, unless otherwise indicated. […] When determining the shortest S1-S1 pacing rate permitting 1:1 activation, the stimulation intensity was DTE x 2, determined at a CL of 500 ms.

The test system of data set [4] is female rabbit isolated heart treated with E-4031. In words: Torsades de pointes in rabbit isolated heart treated with E-4031. As to conditions: E-4031 60 nM. The procedure: Each rabbit was sedated using intramuscular injections of 6 mg/kg xylazine and 40 mg/kg ketamine and then anesthetized using a “cocktail” of ketamine (15 mg/kg)+xylazine (4 mg/kg) in 1.5 ml saline. The ketamine/xylazine cocktail was administered as an i.v. bolus via the marginal ear vein. After anesthesia was confirmed, the thorax was opened and the heart was quickly excised. The heart was placed in a modified Krebs-Henseleit (K-H) physiological saline solution at room temperature. […] CPP was measured (with a Biopac MP 150 pressure transducer, Goleta, Calif.) from a side port of the aortic catheter. To facilitate exit of fluid from the chamber of the left ventricle (LV), the leaflets of the mitral valve were trimmed with fine spring-handled scissors. The right atrial wall was partially removed.
Complete AV block was induced by thermo-ablation of the AV nodal area. […] A bipolar Teflon-coated electrode was placed on the right ventricular septum to pace the heart. Electrical stimuli 3 ms in width and 3-fold threshold amplitude were delivered to the pacing electrode at a frequency of 1 Hz throughout the experiments using a Grass S48 stimulator (W. Warwick, R.I.).
After initiation of ventricular pacing, a 30-40 min equilibration delay was allowed for heart rate (and CPP) to achieve a steady state, an essential experimental condition for recording a good quality monophasic action potential (MAP) recording.
Monophasic action potential (MAP) and ECG electrodes from Harvard Apparatus Inc. (Holliston, Mass.) were used to record heart rate (in beats per minute, or bpm), left ventricular MAPs and a bipolar ECG MAP electrodes were pressure contact Ag—AgCl cells attached to a circular holder with springs to keep the electrodes in contact with the LV epicardial surface. Two MAP electrodes were placed on the epicardial ventricular free wall below the level of the atrial-ventricular valves, one at the base to record a basal MAP and one at the apex to record an apical MAP. […] Signals were saved on a computer hard disk for subsequent analysis. Bipolar electrocardiograms (ECG) were generated using an isolated-heart ECG apparatus (Harvard Apparatus, Holliston, Mass.) attached to Biopac amplifier system.

The conditions of data set [5]: cited from earlier work.
Another data set has as its system patients with AF. As to conditions: DIONYSOS trial, 6 months of follow-up; cited from earlier work.
Data set [6] has as its system spontaneous (intrinsic) atrial rate in guinea pig isolated hearts. In words: Spontaneous atrial rate in guinea pig isolated hearts. As to conditions: verapamil 10 μM; from 225±3. An excerpt: To perfuse the heart by the Langendorff method, the transected aorta was slid onto a glass cannula and secured by a ligature. […] To facilitate the exit of fluid from the left ventricle, the leaflets of the mitral valve were trimmed with fine spring-handled scissors. […] Experimental interventions were always preceded and followed by control measurements.

Where [7] appears, read: ACh 1 μM-mediated persistent AF.

The structures appear in SMILES notation. Like-named read-outs stand apart in the source and are kept apart here.

On to `CC(=O)OCC[N+](C)(C)C` [ACh, Acetylcholine], for which, in data set [1] (setting [7]), the “Termination Persistent AF” value turned out to be 0% and the “Termination Persistent AF (atria terminated/atria tested)” value was 0/10. Also, the “Induction of Persistent AF” value in data set [1] (in presence of ACh 1 μM) is recorded as 100%. Besides, the “Inducibility of AF” value in data set [2] (S1S2 protocol, acetylcholine 0.6-1 μM, ranolazine 6 μM in presence of 0.3 μM dronedarone) was determined as 100%. Also, the “Shortest S1-S1 (shortest CL permitting 1:1 activation)” value in data set [3] (in ms (unit assumed)) was determined as 56 ± 7. In data set [3] (pectinate muscle, CL of 500 ms), the APD90 was 41 ± 6 ms and the ERP is 52 ± 9 ms.
As for `Cc1cccc(CCN2CCC(C(=O)c3ccc(NS(C)(=O)=O)cc3)CC2)n1` [E-4031, N-[4-[[1-[2-(6-Methyl-2-pyridinyl)ethyl]-4-piperidinyl]carbonyl]phenyl]methanesulfonamide], in data set [4] (dronedarone 10 μM), the “Occurrences of torsades de pointes (TdP) (hearts)” value is 4/6. Further, the “TdP (FIG. 18)” value in data set [4] (dronedarone 0.1-0.3 μM) is “induced spontaneous and 3-sec pause-triggered episodes of TdP”. The “Incidence of TdP and EADs” value in data set [4] (dronedarone 0.3-10 μM, ranolazine 6 and 10 μM) is reported as “markedly increased the incidence of torsades de pointes”.
As for `O=C(NCC1CCCCN1)c1cc(OCC(F)(F)F)ccc1OCC(F)(F)F` (stereo not shown) [Flecainide], the “Abolition of inducible AF (hearts)” value in data set [2] (in presence of ACh, dronedarone 0.3 μM alone, flecainide positive control) is recorded as “abolished all episodes of AF”.
For the molecule `CCCCc1oc2ccccc2c1C(=O)c1cc(I)c(OCCN(CC)CC)c(I)c1` [amiodarone], the “Patients who discontinue use due to intolerant side effects” value in data set [5] (after one year) is reported as 8-18%. The values for the Extracardiac complications entry in data set [5] (first year of treatment) and in data set [5] (longer term treatment) were “up to 15%” and “up to 50%”, respectively. Moreover, in the data set with patients with AF, the “Rate of recurrence of AF” value is listed as 42%.
On to `COc1ccc(CCN(C)CCCC(C#N)(c2ccc(OC)c(OC)c2)C(C)C)cc1OC` (stereo not shown) [verapamil], for which the Spontaneous atrial rate in data set [6] came out at 25±24 beats/min.
